Experimental data as given in US11351224B2, “Pharmaceutical composition for preventing and treating transplant rejection” (IUCF-HYU (INDUSTRY-UNIVERSITY COOPERATION FOUNDATION …, priority 2015, dated 2022).

What was measured:
[1] = tested on: spleen cells activated by anti-CD3 and anti-CD28 antibodies; test: IL-2 expression inhibition in spleen cells activated by anti-CD3 and anti-CD28 antibodies (ELISA); assay type: cell-based, mouse; details: for IL-2 expression inhibitory efficiency compared to WT: 0.5, 1, 2 or 5 μM
Procedure: The spleen cells activated by anti-CD3 and anti-CD28 antibodies were treated with 1 μM of each of PBS, the dNP2-ctCTLA-4 fusion product and the TAT-ctCTLA-4 fusion product, and IL-2 expression inhibitory efficiency was measured by ELISA and shown in FIG. 5.
First, a 96-well plate was coated at a concentration of 0.1 μg/well with anti-CD3 (anti-mouse CD3) and anti-CD28 (anti-mouse CD28) monoclonal antibodies at 37° C. for 5 hours, spleen cells were isolated from 7-week-old C57BL/6, and the isolated spleen cells were suspended to be single cells. The spleen cells suspended through the process were seeded at 2.5×10^5 on each well coated with anti-CD3 (anti-mouse CD3) and anti-28 (anti-mouse CD28) monoclonal antibodies, and were treated with 1 μM PBS, the dNP2-ctCTLA-4 fusion product and the TAT-ctCTLA-4 fusion product, and then activated for 24 hours.
The spleen cells activated by the anti-CD3 and anti-CD28 antibodies were each treated with the dNP2-ctCTLA-4 fusion product and the dNP2-EGFP fusion product, and IL-2 expression inhibitory efficiency was measured by ELISA and shown in FIG. 6A. At this time, ELISA was conducted using the kit produced by Biolegend Corporation in accordance with the standard protocol provided by the manufacturer. In addition, spleen cells activated by PMA/ionomycin were treated with the dNP2-ctCTLA-4 fusion product and the dNP2-EGFP fusion product, and IL-2 expression inhibitory efficiency was measured by ELISA and is shown in FIG. 6B.
At this time, the activated spleen cells were activated with the anti-CD3/CD28 antibody or PMA/ionomycin in the presence of 1 μM PBS, the dNP2-ctCTLA-4 fusion product or dNP2-EGFP fusion product for 24 hours.
The spleen cells activated by the anti-CD3 and anti-CD28 antibodies were each treated with 0.5, 1, 2 or 5 μM WT, 1YF, 2YF and DYF, and IL-2 expression inhibitory abilities were measured by ELISA and are shown in FIG. 8.
At this time, the activated spleen cells were activated with anti-CD3/CD28 antibody in the presence of 1 μM PBS, 0.5, 1, 2 or 5 μM WT, 1YF, 2YF, DYF for 24 hours.
The spleen cells activated by anti-CD3 and anti-CD28 antibodies were each treated with 0.1, 0.5, 1, 2 or 5 μM dNP2-TAMRA fusion product, dNP2-CTLA-4 fusion product and dNP2-ctCTLA-4-fm3 fusion product, and IL-2 expression inhibitory efficiency was measured by ELISA and is shown in FIG. 11. At this time, the activated spleen cells were activated with the anti-CD3/CD28 antibody in the presence of 1 μM PBS, 0.1, 0.5, 1, 2 or 5 μM dNP2-TAMRA fusion product, dNP2-CTLA-4 fusion product and dNP2-ctCTLA-4-fm3 fusion product for 24 hours.

[2] = tested on: primary mouse CD4-T-cells; test: Intracellular transfer efficiency of ctCTLA-4 peptide and CPP-ctCTLA-4 fusion products in mouse spleen cells; assay type: cell-based; details: 1 μM, one hour, anti-HA staining
Procedure: Jurkat T-cells were cultured at a density of 5.0×10^5 cells/well on a 24-well plate in RPMI 1640 medium. After the cells were seeded, respective proteins were added at designated times. After culturing, the cells were collected and washed three times with phosphate buffered saline (PBS). Intracellular fluorescence was analyzed with a fluorescence-activated cell sorting (FACS) Canto II flow cytometer (BD Bioscience) and data were analyzed using FlowJo software (Tree Star, INC.). The spleen isolated from the 6-week-old C57BL/6 mice were loaded on a 60 mm×15 mm cell culture dish containing 3 ml of PBS. A single cell suspension was physically prepared using a cell strainer having pores with a size of […], 10 ml of fresh PBS was added thereto and the resulting mixture was centrifuged. […]
Specifically, the transfer efficiency was measured using “3) In vitro transfer efficiency” in the test method, which will be briefly described below.
Mouse spleen cells were cultured together with 1 μM of a ctCTLA-4 peptide, or a dNP2-ctCTLA-4 or Hph-1-ctCTLA-4 fusion product for one hour, and the ctCTLA-4 peptide or CPP-linked ctCTLA-4 fusion products, which had been transferred into cells, were stained with anti-HA antibodies. […] The cells were harvested and intracellular fluorescence was measured using a flow cytometer to measure ctCTLA-4 protein introduction efficiency in primary mouse CD4-T-cells.

[3] = tested on: CD4 T-cells; test: Inhibition of CD4 T-cell activation (CD25 expression) in mouse spleen cells (FACS); assay type: cell-based
Procedure: The present test was conducted to check whether or not the dNP2-TAMRA, dNP2-ctCTLA-4 fusion product and dNP2-ctCTLA-4-fm3 fusion product according to the present invention could inhibit activation of CD4 T-cells in the mouse model. At this time, CD25 was an activation marker which has an increasing expression level when T-cells were activated, and whether or not activation of CD4 T-cells was inhibited based on the amount of expressed CD25 was determined. Specifically, the test method was as follows.
A 96-well plate was coated with 0.1 μg of anti-CD3 and anti-CD28 antibodies in a cell incubator at 37° C. under […] for 5 hours. Then, isolated spleen cells of mice were seeded in a density of 2.5×10^5 on each well. The cells were treated with PBS or 0.1, 0.5, 1, 2 or 5 μM dNP2-TAMRA, dNP2-ctCTLA-4 or dNP2-ctCTLA-4-Fm, and then cultured in a cell incubator at 37° C. under […] for 24 hours. Then, the cells were stained with APC fluorescence-conjugated anti-CD4 mAb and PE fluorescence-fused anti-CD25 mAb at 4° C. for 20 minutes. Then, the cells produced through the aforementioned process were analyzed by a flow cytometer (FACS) to compare amounts of expressed CD25.

[4] = 0.1, 0.5, 1, 2 or 5 μM, 24 hours

Substance | IL-2 expression inhibitory efficiency compared to WT ([1]; 24 hours) | IL-2 expression inhibitory effects of ctCTLA-4 fragment peptides [1] | also measured
1YF: ctCTLA-4 variant, Y residue of the 1Y part substituted by F (KMLKKRSPLTTGVFVKMPPTEPECEKQFQPYFIPIN; ctCTLA-4 1YF) | significant deterioration in IL-2 expression inhibitory efficiency | – | –
2YF: ctCTLA-4 variant, Y residue of the 2Y part substituted by F (KMLKKRSPLTTGVYVKMPPTEPECEKQFQPFFIPIN; ctCTLA-4 2YF) | significant deterioration in IL-2 expression inhibitory efficiency | – | –
DYF: ctCTLA-4 variant, Y residues of both 1Y and 2Y parts substituted by F (KMLKKRSPLTTGVFVKMPPTEPECEKQFQPFFIPIN; ctCTLA-4 DYF) | significant deterioration in IL-2 expression inhibitory efficiency | – | –
Hph-1-ctCTLA-4: fusion product of cell-penetrating peptide Hph-1 (Sequence ID No. 9) linked to the N-end of ctCTLA-4 peptide (YARVRRRGPRRKMLKKRSPLTTGVYVKMPPTEPECEKQFQPYFIPIN; Hph-1; ctCTLA-4) | – | – | intracellular transfer efficiency [2]: further improved
ctCTLA-4-fm1: peptide fragment having an amino acid sequence represented by Sequence ID No. 2 (YVKMPPTEPE; ctCTLA-4 fm1) | – | excellent IL-2 expression inhibitory effects | –
ctCTLA-4-fm2: peptide fragment having an amino acid sequence represented by Sequence ID No. 3 (YFIPIN; ctCTLA-4 fm2) | – | excellent IL-2 expression inhibitory effects | –
ctCTLA-4-fm3: fusion peptide of Sequence ID No. 4, wherein Sequence ID No. 2 is combined with Sequence ID No. 3 (YVKMPPTEPEYFIPIN; ctCTLA-4 fm3) | – | excellent IL-2 expression inhibitory effects | –
ctCTLA-4: peptide of Sequence ID No. 1, 188th to 213th amino acid of the CTLA-4 protein cytoplasmic domain (KMLKKRSPLTTGVYVKMPPTEPECEKQFQPYFIPIN; ctCTLA-4) | – | – | intracellular transfer efficiency [2]: excellent intracellular transfer efficiency
dNP2-ctCTLA-4-fm3: fusion product of fusion peptide ctCTLA-4-fm3 (Sequence ID No. 4) and cell-penetrating peptide dNP2 (Sequence ID No. 8) (KIKKVKKKGRKGSKIKKVKKKGRKYVKMPPTEPEYFIPIN; dNP2; ctCTLA-4 fm3) | – | – | IL-2 expression inhibition [1, 4]: excellent inhibitory activity against IL-2 expression, comparable to the dNP2-ctCTLA-4 fusion protein; intracellular transfer efficiency (FIG. 10) ([3]; 0.1 μM): excellent intracellular transfer efficiency; CD25 expression in CD4 T-cells [3, 4]: efficacy similar thereto
